This passage reports IC50 results from US11919901B2 (Syndax Pharmaceuticals, Inc., priority 2021, dated 2024).

The experiment has as its system MV4-11 cells. Kind of experiment: Cell proliferation assay MV4;11 (CellTiter-Glo, 72 hours). In kind it is cell-based. The conditions noted are these: Homo sapiens; MV4;11 leukemia cell line, 72 hours; read-out: MV4; 11 IC50. In short, it runs like this: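 Luminescent CellTiter-Glo readout after 72 h culture, 37 °C, 5% CO2, expressed relative to vehicle-treated wells, with maximal inhibition taken at the highest dose. MLL-rearranged MV4-11 leukemia cells; final compound range 0.632 to 2000 nM in eight steps.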
In general terms: In ATP-based viability assays light output follows the ATP content of the culture.

Turning to `CCNS(=O)(=O)N[C@@H]1CC[C@@H](CN2CCC3(CC2)CN(c2ncnnc2Oc2ccc(F)cc2C(=O)N(CC(F)F)C(C)C)C3)OC1` [Example 188, N-(2,2-Difluoroethyl)-2-((5-(7-(((2S,5R)-5-((N-ethylsulfamoyl)amino)tetrahydro-2H-pyran-2-yl)methyl)-2,7-diazaspiro[3.5]nonan-2-yl)-1,2,4-triazin-6-yl)oxy)-5-fluoro-N-isopropylbenzamide], the IC50 is less than 100 nM.

Take `CCN(CC)S(=O)(=O)N[C@@H]1CC[C@@H](CN2CCC3(CC2)CN(c2ncncc2Oc2ccc(F)cc2C(=O)N(C(C)C)[C@@H]2CCOC2)C3)OC1` [Example 165, 2-((4-(7-(((2S,5R)-5-((N,N-Diethylsulfamoyl)amino)tetrahydro-2H-pyran-2-yl)methyl)-2,7-diazaspiro[3.5]nonan-2-yl)pyrimidin-5-yl)oxy)-5-fluoro-N-isopropyl-N-((R)-tetrahydrofuran-3-yl)benzamide]: the IC50 is less than 100 nM.

Turning to `CC(C)N(C(=O)c1cc(F)ccc1Oc1cncnc1N1CC2(CCN(C[C@@H]3CC[C@@H](NS(=O)(=O)C(C)C)CO3)CC2)C1)C1CC1` [Example 20, N-Cyclopropyl-5-fluoro-N-isopropyl-2-((4-(7-(((2S,5R)-5-((1-methylethyl)sulfonamido)tetrahydro-2H-pyran-2-yl)methyl)-2,7-diazaspiro[3.5]nonan-2-yl)pyrimidin-5-yl)oxy)benzamide], the IC50 is less than 100 nM.

With `CCS(=O)(=O)N[C@@H]1CC[C@@H](CN2CCC3(CC2)CN(c2ncncc2Oc2ccc(F)cc2C(=O)N(C(C)C)[C@@H]2CCOC2)C3)OC1` [Example 46, 2-((4-(7-(((2S,5R)-5-(Ethylsulfonamido)tetrahydro-2H-pyran-2-yl)methyl)-2,7-diazaspiro[3.5]nonan-2-yl)pyrimidin-5-yl)oxy)-5-fluoro-N-isopropyl-N-((R)-tetrahydrofuran-3-yl)benzamide], the IC50 is less than 100 nM.

With `CC(C)N(C(=O)c1cc(F)ccc1Oc1nncnc1N1CC2(CCN(C[C@@H]3CC[C@@H](NS(=O)(=O)N4CCC4)CO3)CC2)C1)C(C)C` [Example 199, 2-((5-(7-(((2S,5R)-5-(Azetidine-1-sulfonamido)tetrahydro-2H-pyran-2-yl)methyl)-2,7-diazaspiro[3.5]nonan-2-yl)-1,2,4-triazin-6-yl)oxy)-5-fluoro-N,N-diisopropylbenzamide], the IC50 is less than 100 nM.

As for `CCS(=O)(=O)N[C@@H]1CC[C@@H](CN2CCC3(CC2)CN(c2ncncc2Oc2ccc(F)cc2C(=O)N(C(C)C)C2COC2)C3)OC1` [Example 48, 2-((4-(7-(((2S,5R)-5-(Ethylsulfonamido)tetrahydro-2H-pyran-2-yl)methyl)-2,7-diazaspiro[3.5]nonan-2-yl)pyrimidin-5-yl)oxy)-5-fluoro-N-isopropyl-N-(oxetan-3-yl)benzamide], the IC50 is less than 100 nM.

Turning to `CCS(=O)(=O)N[C@@H]1CC[C@@H](CN2CCC3(CC2)CN(c2ncncc2Oc2ccc(F)cc2C(=O)N(CC(F)(F)F)C(C)C)C3)OC1` [Example 152, 2-((4-(7-(((2S,5R)-5-(Ethylsulfonamido)tetrahydro-2H-pyran-2-yl)methyl)-2,7-diazaspiro[3.5]nonan-2-yl)pyrimidin-5-yl)oxy)-5-fluoro-N-isopropyl-N-(2,2,2-trifluoroethyl)benzamide], the IC50 is less than 100 nM.

For the molecule `C[C@H]1COCCN1C(=O)c1cc(F)ccc1Oc1cncnc1N1CC2(CCN(C[C@@H]3CC[C@@H](NS(=O)(=O)C4CC4)CO3)CC2)C1` [Example 40, N-((3R,6S)-6-((2-(5-(4-Fluoro-2-((S)-3-methylmorpholine-4-carbonyl)phenoxy)pyrimidin-4-yl)-2,7-diazaspiro[3.5]nonan-7-yl)methyl)tetrahydro-2H-pyran-3-yl)cyclopropanesulfonamide], the IC50 is 100 to 1000 nM.

`CC(C)N(C(=O)c1cc(F)ccc1Oc1cncnc1N1CC2(CCN(C[C@@H]3CC[C@@H](NS(N)(=O)=O)CO3)CC2)C1)C1CC(F)(F)C1` [Example 117, N-(3,3-Difluorocyclobutyl)-5-fluoro-N-isopropyl-2-((4-(7-(((2S,5R)-5-(sulfamoylamino)tetrahydro-2H-pyran-2-yl)methyl)-2,7-diazaspiro[3.5]nonan-2-yl)pyrimidin-5-yl)oxy)benzamide]: the IC50 is less than 100 nM.

For the molecule `C[C@@H]1COC[C@@H](C)N1C(=O)c1cc(F)ccc1Oc1cncnc1N1CC2(CCN(C[C@@H]3CC[C@@H](NS(=O)(=O)N4CCC[C@@H]4C)CO3)CC2)C1` [Example 209, (S)-N-((3R,6S)-6-((2-(5-(2-((3R,5R)-3,5-Dimethylmorpholine-4-carbonyl)-4-fluorophenoxy)pyrimidin-4-yl)-2,7-diazaspiro[3.5]nonan-7-yl)methyl)tetrahydro-2H-pyran-3-yl)-2-methylpyrrolidine-1-sulfonamide], the IC50 was less than 100 nM.

Regarding `CC(C)N(CC(F)F)C(=O)c1cc(F)ccc1Oc1cncnc1N1CC2(CCN(C[C@@H]3CC[C@@H](NS(=O)(=O)N4CCC4)CO3)CC2)C1` [Example 99, 2-((4-(7-(((2S,5R)-5-(Azetidine-1-sulfonamido)tetrahydro-2H-pyran-2-yl)methyl)-2,7-diazaspiro[3.5]nonan-2-yl)pyrimidin-5-yl)oxy)-N-(2,2-difluoroethyl)-5-fluoro-N-isopropylbenzamide], the IC50 was less than 100 nM.

In the case of `CC(C)N(C)C(=O)c1cc(F)ccc1Oc1cncnc1N1CC2(CCN(C[C@@H]3CC[C@@H](NS(=O)(=O)N4CCC4)CO3)CC2)C1` [Example 138, 2-((4-(7-(((2S,5R)-5-(Azetidine-1-sulfonamido)tetrahydro-2H-pyran-2-yl)methyl)-2,7-diazaspiro[3.5]nonan-2-yl)pyrimidin-5-yl)oxy)-5-fluoro-N-isopropyl-N-methylbenzamide], the IC50 was less than 100 nM.

For `CCN(C(=O)c1cc(F)ccc1Oc1cncnc1N1CC2(CCN(C[C@@H]3CC[C@@H](NS(=O)(=O)N4CCOCC4)CO3)CC2)C1)C(C)C` [Example 64, N-Ethyl-5-fluoro-N-isopropyl-2-((4-(7-(((2S,5R)-5-(morpholine-4-sulfonamido)tetrahydro-2H-pyran-2-yl)methyl)-2,7-diazaspiro[3.5]nonan-2-yl)pyrimidin-5-yl)oxy)benzamide], the IC50 is less than 100 nM.

In the case of `CC(C)N(C(=O)c1cc(F)ccc1Oc1cncnc1N1CC2(CCN(C[C@@H]3CC[C@@H](NS(=O)(=O)N4CCC4)CO3)CC2)C1)C(C)C` [Example 88, 2-((4-(7-(((2S,5R)-5-(Azetidine-1-sulfonamido)tetrahydro-2H-pyran-2-yl)methyl)-2,7-diazaspiro[3.5]nonan-2-yl)pyrimidin-5-yl)oxy)-5-fluoro-N,N-diisopropylbenzamide], the IC50 is less than 100 nM.

On to `CCN(C)S(=O)(=O)N[C@@H]1CC[C@@H](CN2CCC3(CC2)CN(c2ncncc2Oc2ccc(F)cc2C(=O)N2[C@H](C)COC[C@H]2C)C3)OC1` [Example 128, {[(3R,6S)-6-{[2-(5-{2-[(3R,5R)-3,5-Dimethylmorpholine-4-carbonyl]-4-fluorophenoxy}pyrimidin-4-yl)-2,7-diazaspiro[3.5]nonan-7-yl]methyl}oxan-3-yl]sulfamoyl}(ethyl)methylamine], for which the IC50 is less than 100 nM.

In the case of `CCN(C(=O)c1cc(F)ccc1Oc1cncnc1N1CC2(CCN(C[C@@H]3CC[C@@H](NS(=O)(=O)CC)CO3)CC2)C1)C(C)C` [Example 2, N-Ethyl-2-((4-(7-(((2S,5R)-5-(ethylsulfonamido)tetrahydro-2H-pyran-2-yl)methyl)-2,7-diazaspiro[3.5]nonan-2-yl)pyrimidin-5-yl)oxy)-5-fluoro-N-isopropylbenzamide], the IC50 is less than 100 nM.

For the molecule `COCCN(C(=O)c1cc(F)ccc1Oc1cncnc1N1CC2(CCN(C[C@@H]3CC[C@@H](NS(=O)(=O)c4ccccc4)CO3)CC2)C1)C(C)C` [Example 254, 5-Fluoro-N-isopropyl-N-(2-methoxyethyl)-2-((4-(7-(((2S,5R)-5-(phenylsulfonamido)tetrahydro-2H-pyran-2-yl)methyl)-2,7-diazaspiro[3.5]nonan-2-yl)pyrimidin-5-yl)oxy)benzamide], the IC50 was less than 100 nM.

For `CC(C)N(C(=O)c1cc(F)ccc1Oc1cncnc1N1CC2(CCN(C[C@@H]3CC[C@@H](NS(=O)(=O)C4CC4)CO3)CC2)C1)[C@H]1CCOC1` [Example 176, 2-((4-(7-(((2S,5R)-5-(Cyclopropanesulfonamido)tetrahydro-2H-pyran-2-yl)methyl)-2,7-diazaspiro[3.5]nonan-2-yl)pyrimidin-5-yl)oxy)-5-fluoro-N-isopropyl-N-((S)-tetrahydrofuran-3-yl)benzamide], the IC50 is less than 100 nM.

In the case of `CC(C)N(CCC#N)C(=O)c1cc(F)ccc1Oc1cncnc1N1CC2(CCN(C[C@@H]3CC[C@@H](NS(=O)(=O)N4CCC4)CO3)CC2)C1` [Example 184, 2-((4-(7-(((2S,5R)-5-(Azetidine-1-sulfonamido)tetrahydro-2H-pyran-2-yl)methyl)-2,7-diazaspiro[3.5]nonan-2-yl)pyrimidin-5-yl)oxy)-N-(2-cyanoethyl)-5-fluoro-N-isopropylbenzamide], the IC50 was less than 100 nM.

With `Cc1nc(S(=O)(=O)N[C@@H]2CC[C@@H](CN3CCC4(CC3)CN(c3ncncc3Oc3ccc(F)cc3C(=O)N3[C@H](C)COC[C@H]3C)C4)OC2)cs1` [Example 122, N-((3R,6S)-6-((2-(5-(2-((3R,5R)-3,5-Dimethylmorpholine-4-carbonyl)-4-fluorophenoxy)pyrimidin-4-yl)-2,7-diazaspiro[3.5]nonan-7-yl)methyl)tetrahydro-2H-pyran-3-yl)-2-methylthiazole-4-sulfonamide], the IC50 was less than 100 nM.

`C[C@@H]1COC[C@@H](C)N1C(=O)c1cc(F)ccc1Oc1cncnc1N1CC2(CCN(C[C@@H]3CC[C@@H](NS(=O)(=O)N4CCC4)CO3)CC2)C1` [Example 121, N-((3R,6S)-6-((2-(5-(2-((3R,5R)-3,5-Dimethylmorpholine-4-carbonyl)-4-fluorophenoxy)pyrimidin-4-yl)-2,7-diazaspiro[3.5]nonan-7-yl)methyl)tetrahydro-2H-pyran-3-yl)azetidine-1-sulfonamide]: the IC50 was less than 100 nM.
